Laboratory results from patent US20250382332A1, “NOVEL ALPHA-FACTOR BASED PEPTIDES WITH ANTIFUNGAL ACTIVITY” (INVAIO SCIENCES, INC., priority 2024, published 2025).
Peptide text beside a SMILES is read from it.

Key:
[1] = tested on: Botrytis cinerea (B05.10); assay: Resazurin antifungal assay of 180 alpha-factor peptide variants towards Botrytis (Example 2); assay type: cell-based; conditions: % inhibition of fungal growth, Botrytis conidia, resazurin
Method in brief: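 B. cinerea B05.10 conidia (5000/well) were exposed to peptides at 100, 50, 20, 15 and 10 μM final for 24 h at 20° C. Resazurin was then added and fluorescence read at 570/620 nm. Percent growth inhibition was calculated against conidia-only wells, with four technical replicates.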

[2] = tested on: Botrytis cinerea (B05.10); assay: Resazurin antifungal assay of 23 alpha-factor peptides (dimers, hybrids) towards Botrytis (Example 15, Table 6); assay type: cell-based; parameters: key to active against Botrytis at 2.5 μM: Peptides that showed greater than 90% inhibition were considered active against Botrytis; conditions: for Inhibition at 2.5 μM / active against Botrytis at 2.5 μM: peptide 2.5 μM; for Inhibition at 2.5 μM / Inhibition at 5 μM / Inhibition at 10 μM / Inhibition at 20 μM / Inhibition at 50 μM: resazurin assay, % inhibition of fungal growth, Botrytis cinerea B05.10; for Inhibition at 5 μM: peptide 5 μM; for Inhibition at 10 μM: peptide 10 μM; for Inhibition at 20 μM: peptide 20 μM; for Inhibition at 50 μM: peptide 50 μM
Method: The antifungal activity of […] alpha-factor peptide variants towards Botrytis was tested. Experimental design:
Peptides corresponding to SEQ ID NO: 261-264 and 401-420 were chemically synthesized using the solid-phase synthesis method and resuspended in water to a stock solution of 1 mM. The stock solution was aliquoted in cryovials and stored at −80° C.
The Botrytis cinerea culture (B05.10) isolate was acquired from the Centraalbureau voor Schimmelcultures, the Netherlands. The Botrytis fungus was propagated on 0.5% V8 agar plates (200 ml V8 Juice, 3 g CaCO3, 15 g agar, 800-ml millipore water) at 20° C., in a 12 h photoperiod for 21 days.
Fungal conidia were harvested by scraping a Botrytis plate flooded with 1 ml water with 0.1% Tween 80 solution. Conidia were then collected in a 50 ml falcon tube by passing the solution through a 40 micron filter. The solution was then centrifuged at 6000 rpm and the pellet was resuspended in 1 ml of 20% glycerol. The conidia concentration of the resulting solution was counted using a hemocytometer. The stock was diluted to […] using 20% glycerol and frozen in 100 μl aliquots in −80° C. until further use.
Peptides were tested for activity against Botrytis, using the resazurin assay. For this, fungal stock conidia was first diluted to 5000 conidia/well. 50 μl of the spore suspension was added to each well of the sterile 96-well clear bottom testing plate and mixed with 50 μl of peptide solutions to a final concentration of 100, 50, 20, 10, 5 and 2.5 μM. The plate was incubated for 24 h at 20° C. After 24 h, 10 μl of resazurin dye was added to the microtiter plate and incubated again for […]. Fluorescence was measured at 570/620 nm after 4 h of incubation with resazurin.
Growth inhibition was calculated by subtracting the fluorescence values of conidia only wells from sample wells and depicted as % inhibition of fungal growth. Four technical replicates were used for all treatments.

Compound	Inhibition at 50 μM ([1]; peptide 50 μM) [%]	Inhibition at 100 μM ([1]; peptide 100 μM) [%]	Inhibition at 2.5 μM [2] [%]	Inhibition at 5 μM [2] [%]	Inhibition at 10 μM [2] [%]	Inhibition at 20 μM [2] [%]	Inhibition at 50 μM [2] [%]	active against Botrytis at 2.5 μM [2]
CC[C@H](C)[C@H](NC(=O)[C@H](CCCCN)NC(=O)[C@H](CC(C)C)NC(=O)[C@H](C)NC(=O)[C@H](CC(C)C)NC(=O)[C@H](CC(=O)O)NC(=O)[C@H](Cc1c[nH]cn1)NC(=O)[C@@H](N)CCCCN)C(=O)NCC(=O)N[C@@H](CCC(N)=O)C(=O)N1CCC[C@H]1C(=O)N[C@@H](CCSC)C(=O)N[C@@H](Cc1ccc(O)cc1)C(=O)O [compound 180] (H-KHDLALKIGQPMY-OH; N-terminus and C-terminus assumed)	<90	<90	–	–	–	–	–	–
CSCC[C@H](NC(=O)[C@@H]1CCCN1C(=O)[C@H](CCC(N)=O)NC(=O)CNC(=O)[C@H](C)NC(=O)[C@H](CCCNC(=N)N)NC(=O)[C@H](CC(C)C)NC(=O)[C@H](CCCNC(=N)N)NC(=O)CNC(=O)[C@H](Cc1c[nH]c2ccccc12)NC(=O)[C@H](Cc1c[nH]cn1)NC(=O)[C@H](CCCCN)NC(=O)CNC(=O)CNC(=O)CNC(=O)CNC(=O)[C@H](Cc1ccc(O)cc1)NC(=O)[C@H](CCSC)NC(=O)[C@@H]1CCCN1C(=O)[C@H](CCC(N)=O)NC(=O)CNC(=O)[C@H](C)NC(=O)[C@H](CCCNC(=N)N)NC(=O)[C@H](CC(C)C)NC(=O)[C@H](CCCNC(=N)N)NC(=O)CNC(=O)[C@H](Cc1c[nH]c2ccccc12)NC(=O)[C@H](Cc1c[nH]cn1)NC(=O)[C@@H](N)CCCCN)C(=O)N[C@@H](Cc1ccc(O)cc1)C(=O)O [compound 261] (H-KHWGRLRAGQPMYGGGGKHWGRLRAGQPMY-OH; N-terminus and C-terminus assumed)	–	–	<90	99.3	100	100	100	–
CSCC[C@H](NC(=O)[C@@H]1CCCN1C(=O)[C@H](CCC(N)=O)NC(=O)CNC(=O)[C@H](C)NC(=O)[C@H](CCCNC(=N)N)NC(=O)[C@H](CC(C)C)NC(=O)[C@H](CCCNC(=N)N)NC(=O)CNC(=O)[C@H](Cc1c[nH]c2ccccc12)NC(=O)[C@H](Cc1c[nH]cn1)NC(=O)[C@@H](N)CCCCN)C(=O)N[C@@H](Cc1ccc(O)cc1)C(=O)NCC(=O)NCC(=O)NCC(=O)NCC(=O)N[C@@H](CCCNC(=N)N)C(=O)N[C@@H](CCCNC(=N)N)C(=O)N[C@@H](CCCNC(=N)N)C(=O)N[C@@H](CCCNC(=N)N)C(=O)N[C@@H](CCCNC(=N)N)C(=O)N[C@@H](CCCNC(=N)N)C(=O)N[C@@H](CCCNC(=N)N)C(=O)N[C@@H](CCCNC(=N)N)C(=O)O [compound 262] (H-KHWGRLRAGQPMYGGGGRRRRRRRR-OH; N-terminus and C-terminus assumed)	–	–	99.8	100	100	100	100	active
CSCC[C@H](NC(=O)[C@@H]1CCCN1C(=O)[C@H](CCC(N)=O)NC(=O)CNC(=O)[C@H](C)NC(=O)[C@H](CCCNC(=N)N)NC(=O)[C@H](CC(C)C)NC(=O)[C@H](CCCNC(=N)N)NC(=O)CNC(=O)[C@H](Cc1c[nH]c2ccccc12)NC(=O)[C@H](Cc1c[nH]cn1)NC(=O)[C@@H](N)CCCCN)C(=O)N[C@@H](Cc1ccc(O)cc1)C(=O)NCC(=O)NCC(=O)NCC(=O)NCC(=O)N[C@@H](CCCCN)C(=O)N[C@@H](CCCCN)C(=O)N[C@@H](CCCCN)C(=O)N[C@@H](CCCCN)C(=O)N[C@@H](CCCCN)C(=O)N[C@@H](CCCCN)C(=O)N[C@@H](CCCCN)C(=O)N[C@@H](CCCCN)C(=O)O [compound 263] (H-KHWGRLRAGQPMYGGGGKKKKKKKK-OH; N-terminus and C-terminus assumed)	–	–	99.7	100	100	100	100	active
CSCC[C@H](NC(=O)[C@@H]1CCCN1C(=O)[C@H](CCC(N)=O)NC(=O)CNC(=O)[C@H](C)NC(=O)[C@H](CCCNC(=N)N)NC(=O)[C@H](CC(C)C)NC(=O)[C@H](CCCNC(=N)N)NC(=O)CNC(=O)[C@H](Cc1c[nH]c2ccccc12)NC(=O)[C@H](Cc1c[nH]cn1)NC(=O)[C@@H](N)CCCCN)C(=O)N[C@@H](Cc1ccc(O)cc1)C(=O)NCC(=O)NCC(=O)NCC(=O)NCC(=O)N[C@@H](Cc1ccc(O)cc1)C(=O)N[C@@H](CCSC)C(=O)N1CCC[C@H]1C(=O)N[C@@H](CCC(N)=O)C(=O)NCC(=O)N[C@@H](C)C(=O)N[C@@H](CCCNC(=N)N)C(=O)N[C@@H](CC(C)C)C(=O)N[C@@H](CCCNC(=N)N)C(=O)NCC(=O)N[C@@H](Cc1c[nH]c2ccccc12)C(=O)N[C@@H](Cc1c[nH]cn1)C(=O)N[C@@H](CCCCN)C(=O)O [compound 264] (H-KHWGRLRAGQPMYGGGGYMPQGARLRGWHK-OH; N-terminus and C-terminus assumed)	–	–	<90	96.2	100	100	100	–
CC[C@H](C)[C@H](NC(=O)[C@H](Cc1c[nH]cn1)NC(=O)[C@@H](N)CCCCN)C(=O)N[C@@H](CC(C)C)C(=O)N[C@@H](CCCCN)C(=O)N[C@@H](Cc1ccccc1)C(=O)N[C@@H](CCCCN)C(=O)N1CCC[C@H]1C(=O)NCC(=O)N[C@@H](CCC(N)=O)C(=O)N1CCC[C@H]1C(=O)N[C@@H](CCSC)C(=O)N[C@@H](Cc1ccc(O)cc1)C(=O)O [compound 402] (H-KHILKFKPGQPMY-OH; N-terminus and C-terminus assumed)	–	–	<90	<90	96.2	100	100	–
CSCC[C@H](NC(=O)[C@@H]1CCCN1C(=O)[C@H](CCC(N)=O)NC(=O)CNC(=O)[C@@H]1CCCN1C(=O)[C@H](CCCCN)NC(=O)[C@H](Cc1ccccc1)NC(=O)[C@H](CCCNC(=N)N)NC(=O)[C@H](CC(C)C)NC(=O)[C@H](Cc1ccc(O)cc1)NC(=O)[C@H](Cc1c[nH]cn1)NC(=O)[C@@H](N)CCCCN)C(=O)N[C@@H](Cc1ccc(O)cc1)C(=O)O [compound 403] (H-KHYLRFKPGQPMY-OH; N-terminus and C-terminus assumed)	–	–	<90	<90	96.0	100	100	–
CSCC[C@H](NC(=O)[C@@H]1CCCN1C(=O)[C@H](CCC(N)=O)NC(=O)CNC(=O)[C@@H]1CCCN1C(=O)[C@H](Cc1c[nH]c2ccccc12)NC(=O)[C@H](CC(C)C)NC(=O)[C@H](CCCNC(=N)N)NC(=O)[C@H](CC(C)C)NC(=O)[C@H](CO)NC(=O)[C@H](Cc1c[nH]cn1)NC(=O)[C@@H](N)CCCCN)C(=O)N[C@@H](Cc1ccc(O)cc1)C(=O)O [compound 404] (H-KHSLRLWPGQPMY-OH; N-terminus and C-terminus assumed)	–	–	–	–	<90	<90	100	–
CSCC[C@H](NC(=O)[C@@H]1CCCN1C(=O)[C@H](CCC(N)=O)NC(=O)CNC(=O)[C@@H]1CCCN1C(=O)[C@H](Cc1ccccc1)NC(=O)[C@H](CC(C)C)NC(=O)[C@@H](NC(=O)[C@H](CC(C)C)NC(=O)[C@H](Cc1c[nH]c2ccccc12)NC(=O)[C@H](Cc1c[nH]cn1)NC(=O)[C@@H](N)CCCCN)[C@@H](C)O)C(=O)N[C@@H](Cc1ccc(O)cc1)C(=O)O [compound 405] (H-KHWLTLFPGQPMY-OH; N-terminus and C-terminus assumed)	–	–	–	–	–	–	<90	–
CSCC[C@H](NC(=O)[C@@H]1CCCN1C(=O)[C@H](CCC(N)=O)NC(=O)CNC(=O)[C@H](CCCNC(=N)N)NC(=O)[C@H](CC(=O)O)NC(=O)[C@H](CC(C)C)NC(=O)[C@H](CCC(N)=O)NC(=O)[C@H](CC(C)C)NC(=O)[C@H](Cc1c[nH]c2ccccc12)NC(=O)[C@H](CCC(N)=O)NC(=O)[C@@H](N)Cc1c[nH]c2ccccc12)C(=O)N[C@@H](Cc1ccc(O)cc1)C(=O)O [compound 406] (H-WQWLQLDRGQPMY-OH; N-terminus and C-terminus assumed)	–	–	–	–	–	–	<90	–
